# Patent US20110117081A1, “FUNCTIONALIZED PYRROLIDINES AND USE THEREOF AS IAP INHIBITORS” (priority 2008, published 2011)
# Tested on: Ovarian adenocarcinoma SKOV3 cells
# Experiment: SKOV3 cell viability assay (MTT)
# Assay type: cell-based
# Conditions: Homo sapiens, SK-OV-3, 72 hours
# Experimental: Ovarian adenocarcinoma SKOV3 cells (ATCC# HTB-77) were cultured as monolayers in McCoy's 5a medium (HyClone) supplemented with 2.2 g/L sodium bicarbonate (Gibco), 10% FBS (HyClone) and 1% penicillin/streptomycin (HyClone). Cells were seeded in tissue culture-treated 96 well plates at 5000 cells/well in 150 ul of media. After 24 hours, triplicate wells of cells were treated with various concentrations of compound (0.01 to 10000 nM) diluted in 50 ul of culture media. Cells were incubated at 37° C. (5% CO2) in the presence of compound for 72 hours. Metabolic viability of remaining cells was assessed by MTT (thiazolyl blue tetrazolium bromide, Sigma) assay. 20 ul of MTT reagent (10 mg/ml) was added per well and plates were incubated for 4 hours at 37° C. (5% CO2). The supernatant was then removed from the plate. The converted MTT product was solubilized with 100 uL of isopropanol and the absorbance was read at 570 nm using a Tecan spectrophotometer.
# (§1) The percentage viability of compound-treated cells was expressed as a fraction of the absorbance/luminescence signal obtained from non-treated cells. EC50 values (corresponding to 50% cell survival in the presence of compound as compared to untreated controls) were calculated from MTT survival curves (HCT116 and SKOV3) using BioAssay software (CambridgeSoft) and from Cell Titer-Glo survival curves (synovioycte and Jurkat cells) using GraphPad Prism (Graph Pad Software Inc.). In the below chart, EC50 values are summarized as follows: a=EC50 of less than 10 nM; b=EC50 of 10-100 nM; and c=EC50 of greater than 100 nM.
row,Structure (SMILES),EC50 [µM]
1,CN[C@@H](C)C(=O)N[C@H](C(=O)N1C[C@@H](NC(=O)c2ccc(-c3ccc(C(=O)N[C@H]4C[C@@H](C(=O)N[C@@H]5CCCc6ccccc65)N(C(=O)[C@@H](NC(=O)[C@H](C)NC)C5CCCCC5)C4)cc3)cc2)C[C@H]1C(=O)N[C@@H]1CCCc2ccccc21)C1CCCCC1 [Compound 9],< 0.01
2,CN[C@@H](C)C(=O)N[C@H](C(=O)N1C[C@@H](NC(=O)C2CCC(C(=O)N[C@H]3C[C@@H](C(=O)N[C@@H]4CCCc5ccccc54)N(C(=O)[C@@H](NC(=O)[C@H](C)NC)C4CCCCC4)C3)CC2)C[C@H]1C(=O)N[C@@H]1CCCc2ccccc21)C1CCCCC1 (stereo partly shown) [Compound 4],< 0.01

# Tested on: Colorectal carcinoma HCT116 cells
# Experiment: HCT116 + ETR1 cell viability assay (MTT)
# Assay type: cell-based
# Conditions: with ETR1 (40 ng/ml), 72 hrs
# Experimental: Colorectal carcinoma HCT116 cells (ATCC# CCL-247) were cultured as monolayers in 96 well plates at a density of 2000 cells per well in 100 ul of McCoy's 5a medium (HyClone) supplemented with 2.2 g/L sodium bicarbonate (Gibco), 10% FBS (HyClone) and 1% penecillin/streptomycin (HyClone) for 24 hours. Triplicate wells of cells were treated for 72 hrs at 37° C. (5% CO2) with 50 ul of HGS agonistic Trail receptor antibody, ETR1 (40 ng/ml) in combination with 50 ul of diluted compound (0.01 to 10000 nM). Metabolic viability of remaining cells was assessed by MTT assay.
# as §1
row,Structure (SMILES),EC50 [µM]
1,CN[C@@H](C)C(=O)N[C@H](C(=O)N1C[C@@H](NC(=O)c2ccc(-c3ccc(C(=O)N[C@H]4C[C@@H](C(=O)N[C@@H]5CCCc6ccccc65)N(C(=O)[C@@H](NC(=O)[C@H](C)NC)C5CCCCC5)C4)cc3)cc2)C[C@H]1C(=O)N[C@@H]1CCCc2ccccc21)C1CCCCC1 [Compound 9],< 0.01
2,CN[C@@H](C)C(=O)N[C@H](C(=O)N1C[C@@H](NC(=O)c2ccc(C(=O)N[C@H]3C[C@@H](C(=O)N4CC[C@H](c5ccccc5)C4)N(C(=O)[C@@H](NC(=O)[C@H](C)NC)C4CCCCC4)C3)cc2)C[C@H]1C(=O)N1CC[C@H](c2ccccc2)C1)C1CCCCC1 [Compound 39],0.01 to 0.1
3,CN[C@@H](C)C(=O)N[C@H](C(=O)N1C[C@@H](NC(=O)c2ccc(C(=O)N[C@H]3C[C@@H](C(=O)N(C)[C@H](C)c4ccccc4)N(C(=O)[C@@H](NC(=O)[C@H](C)NC)C4CCCCC4)C3)cc2)C[C@H]1C(=O)N(C)[C@H](C)c1ccccc1)C1CCCCC1 [Compound 48],0.01 to 0.1
4,CN[C@@H](C)C(=O)N[C@H](C(=O)N1C[C@@H](NC(=O)C2CCC(C(=O)N[C@H]3C[C@@H](C(=O)N[C@@H]4CCCc5ccccc54)N(C(=O)[C@@H](NC(=O)[C@H](C)NC)C4CCCCC4)C3)CC2)C[C@H]1C(=O)N[C@@H]1CCCc2ccccc21)C1CCCCC1 (stereo partly shown) [Compound 4],< 0.01
5,CN[C@@H](C)C(=O)N[C@H](C(=O)N1C[C@@H](NC(=O)c2ccc(C(=O)N[C@H]3C[C@@H](C(=O)N[C@H]4CCCc5ccccc54)N(C(=O)[C@@H](NC(=O)[C@H](C)NC)C4CCCCC4)C3)cc2)C[C@H]1C(=O)N[C@H]1CCCc2ccccc21)C1CCCCC1 [Compound 57],0.01 to 0.1
6,CCCN[C@@H](C)C(=O)N[C@H](C(=O)N1C[C@@H](NC(=O)c2ccc(C(=O)N[C@H]3C[C@@H](C(=O)N[C@@H]4CCCc5ccccc54)N(C(=O)[C@@H](NC(=O)[C@H](C)NCCC)C4CCCCC4)C3)cc2)C[C@H]1C(=O)N[C@@H]1CCCc2ccccc21)C1CCCCC1 [Compound 56],< 0.01
7,CN[C@@H](C)C(=O)N[C@H](C(=O)N1C[C@@H](NC(=O)c2ccc(C(=O)N[C@H]3C[C@@H](C(=O)N[C@H](C)c4ccc(OC)cc4)N(C(=O)[C@@H](NC(=O)[C@H](C)NC)C4CCCCC4)C3)cc2)C[C@H]1C(=O)N[C@H](C)c1ccc(OC)cc1)C1CCCCC1 [Compound 34],< 0.01
8,CN[C@@H](C)C(=O)N[C@H](C(=O)N1C[C@@H](NC(=O)c2cnc(C(=O)N[C@H]3C[C@@H](C(=O)N[C@@H]4CCOc5ccccc54)N(C(=O)[C@@H](NC(=O)[C@H](C)NC)C4CCCCC4)C3)cn2)C[C@H]1C(=O)N[C@@H]1CCOc2ccccc21)C1CCCCC1 [Compound 54],< 0.01
9,CCN[C@@H](C)C(=O)N[C@H](C(=O)N1C[C@@H](NC(=O)c2ccc(C(=O)N[C@H]3C[C@@H](C(=O)N[C@@H]4CCCc5ccccc54)N(C(=O)[C@@H](NC(=O)[C@H](C)NCC)C4CCCCC4)C3)cc2)C[C@H]1C(=O)N[C@@H]1CCCc2ccccc21)C1CCCCC1 [Compound 53],< 0.01
10,CN[C@@H](C)C(=O)N[C@H](C(=O)N1C[C@@H](NC(=O)c2ccc(C(=O)N[C@H]3C[C@@H](C(=O)Nc4cc(C)nn4-c4ccccc4)N(C(=O)[C@@H](NC(=O)[C@H](C)NC)C4CCCCC4)C3)cc2)C[C@H]1C(=O)Nc1cc(C)nn1-c1ccccc1)C1CCCCC1 [Compound 49],0.01 to 0.1
11,CN[C@@H](C)C(=O)N[C@H](C(=O)N1C[C@@H](NC(=O)c2ccc(C(=O)N[C@H]3C[C@@H](C(=O)N[C@H]4CCOc5ccccc54)N(C(=O)[C@@H](NC(=O)[C@H](C)NC)C4CCCCC4)C3)cc2)C[C@H]1C(=O)N[C@H]1CCOc2ccccc21)C1CCCCC1 [Compound 58],0.01 to 0.1
12,CN[C@@H](C)C(=O)N[C@H](C(=O)N1C[C@@H](NC(=O)c2ccc(C(=O)N[C@H]3C[C@@H](C(=O)N[C@@H]4CCCc5ccccc54)N(C(=O)[C@@H](NC(=O)[C@H](C)NC)C4CCCC4)C3)cc2)C[C@H]1C(=O)N[C@@H]1CCCc2ccccc21)C1CCCC1 [Compound 43],< 0.01
13,CN[C@@H](C)C(=O)N[C@H](C(=O)N1C[C@@H](NC(=O)c2ccc(C(=O)N[C@H]3C[C@@H](C(=O)N[C@H](C)c4ccc(F)cc4)N(C(=O)[C@@H](NC(=O)[C@H](C)NC)C4CCOCC4)C3)cc2)C[C@H]1C(=O)N[C@H](C)c1ccc(F)cc1)C1CCOCC1 [Compound 42],0.01 to 0.1
14,CN[C@@H](C)C(=O)N[C@H](C(=O)N1C[C@@H](NC(=O)c2ccc(C(=O)N[C@H]3C[C@@H](C(=O)Nc4ccccc4)N(C(=O)[C@@H](NC(=O)[C@H](C)NC)C4CCCCC4)C3)cc2)C[C@H]1C(=O)Nc1ccccc1)C1CCCCC1 [Compound 47],< 0.01
15,CN[C@@H](C)C(=O)N[C@H](C(=O)N1C[C@@H](NC(=O)c2ccc(C(=O)N[C@H]3C[C@@H](C(=O)N[C@@H]4CCCc5ccccc54)N(C(=O)[C@@H](NC(=O)[C@H](C)NC)C4CCOCC4)C3)cc2)C[C@H]1C(=O)N[C@@H]1CCCc2ccccc21)C1CCOCC1 [Compound 46],0.01 to 0.1
16,CN[C@@H](C)C(=O)N[C@H](C(=O)N1C[C@@H](NC(=O)c2ccc(C(=O)N[C@H]3C[C@@H](C(=O)NC(C)(C)c4ccccc4)N(C(=O)[C@@H](NC(=O)[C@H](C)NC)C4CCCCC4)C3)cc2)C[C@H]1C(=O)NC(C)(C)c1ccccc1)C1CCCCC1 [Compound 37],< 0.01
17,CN[C@@H](C)C(=O)N[C@H](C(=O)N1C[C@@H](NC(=O)c2ccc(C(=O)N[C@H]3C[C@@H](C(=O)NCc4ccc(F)cc4)N(C(=O)[C@@H](NC(=O)[C@H](C)NC)C4CCCCC4)C3)cc2)C[C@H]1C(=O)NCc1ccc(F)cc1)C1CCCCC1 [Compound 38],< 0.01
18,CN[C@@H](C)C(=O)N[C@H](C(=O)N1C[C@@H](NC(=O)c2cnc(C(=O)N[C@H]3C[C@@H](C(=O)N[C@@H]4CCCc5ccccc54)N(C(=O)[C@@H](NC(=O)[C@H](C)NC)C4CCCCC4)C3)cn2)C[C@H]1C(=O)N[C@@H]1CCCc2ccccc21)C1CCCCC1 [Compound 55],< 0.01
19,CN[C@@H](C)C(=O)N[C@H](C(=O)N1C[C@@H](NC(=O)c2ccc(C(=O)N[C@H]3C[C@@H](C(=O)Nc4ccccc4-c4ccccc4)N(C(=O)[C@@H](NC(=O)[C@H](C)NC)C4CCCCC4)C3)cc2)C[C@H]1C(=O)Nc1ccccc1-c1ccccc1)C1CCCCC1 [Compound 52],< 0.01
20,CN[C@H](C(=O)N[C@H](C(=O)N1C[C@@H](NC(=O)c2ccc(C(=O)N[C@H]3C[C@@H](C(=O)N[C@@H]4CCCc5ccccc54)N(C(=O)[C@@H](NC(=O)[C@@H](NC)C4CC4)C4CCCCC4)C3)cc2)C[C@H]1C(=O)N[C@@H]1CCCc2ccccc21)C1CCCCC1)C1CC1 [Compound 50],0.01 to 0.1
21,CN[C@@H](C)C(=O)N[C@H](C(=O)N1C[C@@H](NC(=O)c2ccc(C(=O)N[C@H]3C[C@@H](C(=O)N[C@@H]4CCCc5cc(F)ccc54)N(C(=O)[C@@H](NC(=O)[C@H](C)NC)C4CCCCC4)C3)cc2)C[C@H]1C(=O)N[C@@H]1CCCc2cc(F)ccc21)C1CCCCC1 [Compound 40],< 0.01
22,CN[C@@H](C)C(=O)N[C@H](C(=O)N1C[C@@H](NC(=O)c2ccc(C(=O)N[C@H]3C[C@@H](C(=O)N[C@@H]4CCCc5ccccc54)N(C(=O)[C@@H](NC(=O)[C@H](C)NC)C4CCC4)C3)cc2)C[C@H]1C(=O)N[C@@H]1CCCc2ccccc21)C1CCC1 [Compound 44],< 0.01
23,CN[C@@H](C)C(=O)N[C@H](C(=O)N1C[C@@H](NC(=O)c2ccc(C(=O)N[C@H]3C[C@@H](C(=O)Nc4ccccc4-c4ncccn4)N(C(=O)[C@@H](NC(=O)[C@H](C)NC)C4CCCCC4)C3)cc2)C[C@H]1C(=O)Nc1ccccc1-c1ncccn1)C1CCCCC1 [Compound 45],0.01 to 0.1
24,CN[C@@H](C)C(=O)N[C@H](C(=O)N1C[C@@H](NC(=O)c2ccc(C(=O)N[C@H]3C[C@@H](C(=O)N[C@@H]4CCOc5cc(F)ccc54)N(C(=O)[C@@H](NC(=O)[C@H](C)NC)C4CCCCC4)C3)cc2)C[C@H]1C(=O)N[C@@H]1CCOc2cc(F)ccc21)C1CCCCC1 [Compound 36],< 0.01
25,CN[C@@H](C)C(=O)N[C@H](C(=O)N1C[C@@H](NC(=O)c2ccc(C(=O)N[C@H]3C[C@@H](C(=O)N4CCc5ccccc5C4)N(C(=O)[C@@H](NC(=O)[C@H](C)NC)C4CCCCC4)C3)cc2)C[C@H]1C(=O)N1CCc2ccccc2C1)C1CCCCC1 [Compound 35],0.01 to 0.1
26,CN[C@@H](C)C(=O)N[C@H](C(=O)N1C[C@@H](NC(=O)c2ccc(C(=O)N[C@H]3C[C@@H](C(=O)N[C@@H]4CCCc5ccc(F)cc54)N(C(=O)[C@@H](NC(=O)[C@H](C)NC)C4CCCCC4)C3)cc2)C[C@H]1C(=O)N[C@@H]1CCCc2ccc(F)cc21)C1CCCCC1 [Compound 33],< 0.01
